In brackets after ≈: the same amount, converted by molar mass. Where only a bound is given, the exact number is not on record here.

The nature of data set [1]: Solubility in CHCl3 by UV-vis absorbance calibration curve. The data set is classed as physicochemical. The note with it: room temperature, 50 mg/mL samples stirred overnight, 0.45 μm filtered, diluted 2000x, Beer-Lambert; for solubility: CHCl3, organic solvent or mixture, thermodynamic from solid. Here is the method: FIG. 2 is a concentration vs absorption plot for determining the solubility of compounds (5) and (7) in CHCl3. A calibration curve was made for each compound by plotting absorbance values of known concentrations. (Dotted lines). In order to determine solubility, compounds (5) and (7) were made into solutions having 50 mg/mL concentration, allowed to stir overnight and then passed through a 0.45 μm syringe filter to remove any undissolved solids. The obtained solutions were then diluted by a factor of 2000 so that their absorbance was in the range of values used for the calibration curves. By using the Beer-Lambert law and the slope of the respective curves, it was determined that the solubility of both (5) and (7) was ˜50 mg/mL. This observation is confirmed by the apparent complete dissolution of 50 mg/mL samples of either (5) or (7) in CHCl3.
With the N annulated PDI derivatives (4), (5) and (7) in hand we set out to study their optical electronic and solubility characteristics. The N-annulated PDI materials bear an extra site for alkyl chain functionalization which was envisioned to modify the solubility and self-assembly characteristics of the materials with respect to the parent PDI compound (2). […] This assertion is supported by ^1H NMR evidence showing that the N—H proton becomes more deshielded upon increasing the solution concentration, typically observed for hydrogen bonding interactions (not shown). […] [54] Importantly, such high organic solvent solubility is achieved without the need for long branched alkyl chains attached to the imide N atoms, chains that are used for almost all reported multi-PDI based materials. Thus, one can envision a wide array of alkyl chains being installed to fine-tune molecular assembly in the solid state, following the so-called “side chain engineering” methodology.

Data set [2] is described as follows: Thermal stability by TGA analysis. The class given is physicochemical. Here is the method: The melting points of compounds (4), (5), and (7) were also determined and provide support for the assertion that compound (4) experiences intermolecular hydrogen bonding interactions. […] Dimerization improves thermal stability.

`CCC(CC)n1c(=O)c2ccc3c4ccc5c(=O)n(C(CC)CC)c(=O)c6cc7[nH]c8cc(c1=O)c2c3c8c7c4c56` [Compound 4, EP-NH-CAG-PDI]: the melting point – broadly, the temperature, or range, at which the solid turns liquid – came to 235 °C. Moreover, the solubility – broadly, how much of the substance goes into solution per volume – in data set [1] is < 1 mg/mL.

Take `CCCCCCn1c2cc3c(=O)n(C(CC)CC)c(=O)c4ccc5c6c(-c7cc8c(=O)n(C(CC)CC)c(=O)c9cc%10c%11c(c7c7ccc%12c(=O)n(C(CC)CC)c(=O)c%13cc(c%11c7c%12%13)n%10CCCCCC)c89)cc7c(=O)n(C(CC)CC)c(=O)c8cc1c(c6c78)c2c5c43` [Compound 7, BAY-EP-N-Hex-CAG-PDI]: in data set [1], the solubility was > 50 mg/mL and the “solubility in CHCl3” value is listed as ~50 mg/mL (≈ 39.9 mM). Moreover, the “thermally stable up to / decomposition temperature (TGA)” value in data set [2] is ~425 °C.

As to `CCCCCCn1c2cc3c(=O)n(C(CC)CC)c(=O)c4ccc5c6ccc7c(=O)n(C(CC)CC)c(=O)c8cc1c(c6c78)c2c5c43` [Compound 5, EP-N-Hex-CAG-PDI], in data set [1], the solubility was > 50 mg/mL and the “solubility in CHCl3” value was ~50 mg/mL (≈ 79.6 mM).

Source of the values: patent US9865819B2, “Nitrogen annulated perylene diimides for use as electron transport materials in organic electronic devices” (UTI Limited Partnership, priority 2016, dated 2018).
